Test results from US6773896B2, “Method for direct measurement of coagulation factor VIIa activity in plasma” (Warner-Lambert Company, priority 2001, dated 2004).

Tests used:
[1] = molecular target: T1, human FVIIa (Homo sapiens, UniProt P08709); assay: Inhibition of human FVIIa (stated potency); assay type: biochemical; settings: read-out: IC50 against human FVIIa
T1 sequence (P08709 213-466 limits assumed): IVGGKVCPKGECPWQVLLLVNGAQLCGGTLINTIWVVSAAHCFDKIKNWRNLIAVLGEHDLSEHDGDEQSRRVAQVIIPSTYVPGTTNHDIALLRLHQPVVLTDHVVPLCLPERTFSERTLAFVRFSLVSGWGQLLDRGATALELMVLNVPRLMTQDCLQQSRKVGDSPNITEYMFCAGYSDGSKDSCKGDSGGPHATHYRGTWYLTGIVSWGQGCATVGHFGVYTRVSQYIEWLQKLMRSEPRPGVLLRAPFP
T1 sequence (P08709 61-212 partner limits assumed): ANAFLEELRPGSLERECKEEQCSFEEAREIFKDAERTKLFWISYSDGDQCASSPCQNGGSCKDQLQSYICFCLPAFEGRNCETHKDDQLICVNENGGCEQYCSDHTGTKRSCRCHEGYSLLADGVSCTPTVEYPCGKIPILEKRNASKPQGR

[2] = molecular target: T2, FVIIa (Homo sapiens, UniProt P08709); assay: Ex vivo FVIIa activity assay in plasma from treated rabbits, two plasma concentrations; settings: rabbit, 3 mg/kg IV bolus
T2 construct: purchased American Diagnostica, Greenwich, Conn
T2 sequence (P13726 33-295 partner, one chain of several): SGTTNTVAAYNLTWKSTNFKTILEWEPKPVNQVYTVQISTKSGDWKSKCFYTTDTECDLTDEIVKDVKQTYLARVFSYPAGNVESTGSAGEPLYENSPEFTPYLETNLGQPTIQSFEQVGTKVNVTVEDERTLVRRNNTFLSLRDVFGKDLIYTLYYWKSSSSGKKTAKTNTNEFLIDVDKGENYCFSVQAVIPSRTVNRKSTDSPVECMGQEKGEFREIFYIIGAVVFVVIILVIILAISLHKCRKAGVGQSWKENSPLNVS
Description: (§1) The FVIIa activity was measured in the plasma collected from rabbits that received 2-[6-(3-Carbamimidoyl-phenoxy)-3,5-difluoro-4-(1-methyl-3-phenyl-propylamino)-pyridin-2-yloxy]-5-dimethylamino-4-methyl-benzoic acid, IV bolus, 3 mg/kg (n=3). Blood samples were collected before and 1, 5, 10, 30, and 60 minutes after the onset of administration, followed by plasma preparation. 2-[6-(3-Carbamimidoyl-phenoxy)-3,5-difluoro-4-(1-methyl-3-phenyl-propylamino)-pyridin-2-yloxy]-5-dimethylamino-4-methyl-benzoic acid in plasma was extracted using 4 volumes of CH3CN to 1 volume of plasma. Precipitated proteins were removed by centrifugation at 2000 g for 5 minutes. Solvent was decanted into small glass tubes and dried at 37° C. under a stream of nitrogen, then reconstituted in Tris-buffer. The method of FVIIa activity assay is the same as in vitro study. FVIIa activity was determined by measuring the rate of absorbance change at 405 nm due to cleavage of the spectrozyme FVIIa (0.5 mM) by FVIIa/TF complex. Plasma concentrations of 2-[6-(3-Carbamimidoyl-phenoxy)-3,5-difluoro-4-(1-methyl-3-phenyl-propylamino)-pyridin-2-yloxy]-5-dimethylamino-4-methyl-benzo acid were determined by using a standards inhibition curve that were generated from rabbit plasma containing known amount of inhibitor and processed identically to test samples. […]

[3] = Ex vivo study in rabbit plasma: plasma concentration calculated from FVIIa activity; settings: 3 mg/kg IV bolus, 1-60 min, n=3, calculated from FVIIa activity and IC50 standard curve
Description: as §1

[4] = molecular target: T3, FVIIa/TF complex (Homo sapiens, UniProt P08709); assay: In vitro one-stage FVIIa activity assay in human plasma (Spectrozyme FVIIa cleavage); assay type: biochemical; settings: for Effect on FVIIa activity in human plasma: 0.625% pooled human plasma, 10 nM FVIIa, 15 nM TF, vs own control
T3 construct: purchased American Diagnostica, Greenwich, Conn
T3 sequence (P13726 33-295 partner, one chain of several): as above
Description: The proteolytic activity of FVIIa was measured by cleavage of paranitroanilide (pNA) substrate (Spectrozyme FVIIa) in a 96-well microtiter plate.
A series of samples containing enzyme inhibitors (0-300 μM) were added to well in a 96-well microtiter plate containing Tris-buffer ([…] Tris, pH 7.4, 100 mM NaCl), 0.625% plasma, 0.1% BSA. After addition of FVIIa (10 nM in final concentration), the plate was incubated for 15 minutes at 37° C. Then the TF (15 nM in final concentration) and CaCl2 (5 mM in final concentration) were added, and the plate was incubated for additional 15 minutes at 37° C. again. After incubation, the substrate (Spectrozyme FVIIa) was added at a final concentration of 0.5 mM to result in a final volume of 200 μL/well. The rate of change in absorbance at 405 nm was monitored by a Softmax plate reader (Molecular Devices).
Above four inhibitors were evaluated in pooled human plasma for their inhibitory effects on FVIIa activity. Effects of FVIIai, 2-[6-(3-Carbamimidoyl-phenoxy)-3,5-difluoro-4-(1-methyl-3-phenyl-propylamino)-pyridin-2-yloxy]-5-dimethylamino-4-methyl-benzoic acid, ({2-(5-Carbamimidoyl-2-hydroxy-phenoxy)-3,5-difluoro-6-[3-(1-methyl-4,5-dihydro-1H-imidazol-2-yl)-phenoxy]-pyridin-4-yl}-methyl-amino)-acetic acid, and (S)-4-[3-(cyclopentylmethylamino)-2-[(2-naphthalenylsulfony)amino]-3-oxopropyl]benzenecarboximidic acid hydrazide on FVIIa activity were compared with their own control group. The activity of FVIIa was obtained with a final concentration of 0.625% human plasma, 10 nM FVIIa, 15 nM TF, 5 mM CaCl2, and 0.5 mM SPZFVIIa.

[5] = Plasma level in hypercholesterolemic rabbits calculated from FVIIa activity; assay type: in vivo, rabbit; settings: IV bolus 0.3 and 1.0 mg/kg, 3 minutes after administration
Description: (§2) The FVIIa activity was measured in plasma collected from hypercholesterolemic rabbits in a balloon-induced injury model of thrombosis. The rabbits received two doses of 7-[(R)-3-(3-Amino-benzyl)-4-(4-amino-phenyl)-4-methyl-2,5-dioxo-imidazolidin-1-ylmethyl]-naphthalene-2-carboxamidine, IV bolus, 0.3 mg/kg (n=5) and 1.0 mg/kg (n=6). Blood samples were collected before and 3 minutes after administration, followed by plasma preparation. Plasma samples were extracted using CH3CN and reconstituted in Tris-buffer. The protocol is the same as ex vivo study of 2-[6-(3-Carbamimidoyl-phenoxy)-3,5-difluoro-4-(1-methyl-3-phenyl-propylamino)-pyridin-2-yloxy]-5-dimethylamino-4-methyl-benzoic acid. The plasma levels of 7-[(R)-3-(3-Amino-benzyl)-4-(4-amino-phenyl)-4-methyl-2,5-dioxo-imidazolidin-1-ylmethyl]-naphthalene-2-carboxamidine were calculated based on the test plasma FVIIa activity and an IC50 standard curve. […]
(§3) The inhibitory effect and plasma concentration of 7-[(R)-3-(3-Amino-benzyl)-4-(4-amino-phenyl)-4-methyl-2,5-dioxo-imidazolidin-1-ylmethyl]-naphthalene-2-carboxamidine was determined in balloon-induced injury model of thrombosis in hypercholesterolemic rabbits. […] The inhibitory effect of 7-[(R)-3-(3-Amino-benzyl)-4-(4-amino-phenyl)-4-methyl-2,5-dioxo-imidazolidin-1-ylmethyl]-naphthalene-2-carboxamidine was measured by FVIIa activity assay. […]

[6] = molecular target: T2, FVIIa; assay: Ex vivo FVIIa activity assay in plasma of hypercholesterolemic rabbits (balloon-induced injury model of thrombosis); parameters: species or system rabbit; settings: IV bolus 0.3 and 1.0 mg/kg, 3 minutes after administration
Description: as §2, §3

[7] = molecular target: thrombin (Homo sapiens, UniProt P00734); assay: Inhibition of thrombin (stated potency); assay type: biochemical

## Cc1cc(Oc2nc(Oc3cccc(C(=N)N)c3)c(F)c(NC(C)CCc3ccccc3)c2F)c(C(=O)O)cc1N(C)C (centres unmarked) [2-[6-(3-Carbamimidoyl-phenoxy)-3,5-difluoro-4-(1-methyl-3-phenyl-propylamino)-pyridin-2-yloxy]-5-dimethylamino-4-methyl-benzoic acid]
[1]
  IC50: 15 nM
[2]
  Ex vivo inhibitory effect on FVIIa activity with 1.25% vs 0.625% plasma in the assay: same inhibitory effect
[3]
  Plasma concentration after IV bolus administration: time-dependent change in plasma concentration
[4]; 300 nM
  Effect on FVIIa activity in human plasma: significantly decreased FVIIa activity
[4]; human plasma, series of concentrations
  Inhibition on FVIIa activity in human plasma over a series of concentrations: dose-dependent inhibition

## C[C@@]1(c2ccc(N)cc2)C(=O)N(Cc2ccc3ccc(C(=N)N)cc3c2)C(=O)N1Cc1cccc(N)c1 [7-[(R)-3-(3-Amino-benzyl)-4-(4-amino-phenyl)-4-methyl-2,5-dioxo-imidazolidin-1-ylmethyl]-naphthalene-2 carboxamidine]
[5]
  Plasma level: dose-dependent changes
[6]
  Ex vivo inhibitory effect on FVIIa activity: dose-dependent changes in inhibitory effect

## N=C(NN)c1ccc(C[C@H](NS(=O)(=O)c2ccc3ccccc3c2)C(=O)NCC2CCCC2)cc1 [(S)-4-[3-(cyclopentylmethylamino)-2-[(2-naphthalenylsulfonyl)amino]-3-oxoprpoyl]-benzenecarboximidic acid hydrazide]
[7]; read-out: IC50 against thrombin
  IC50: 2 nM
[7]; read-out: Ki against thrombin
  Ki: 0.38 nM
[4]; 100 nM
  Effect on FVIIa activity in human plasma: did not alter FVIIa activity

## CN1CCN=C1c1cccc(Oc2nc(Oc3cc(C(=N)N)ccc3O)c(F)c(N(C)CC(=O)O)c2F)c1 [({2-(5-Carbamimidoyl-2-hydroxy-phenoxy)-3,5-difluoro-6-[3-(1-methyl-4,5-dihydro-1H-imidazol-2-yl)-phenoxy]-pyridin-4-yl}-methyl-amino)-acetic acid]
[4]; 100 nM
  Effect on FVIIa activity in human plasma: did not alter FVIIa activity
